Measured values published in PMC3956282, “Binding Stoichiometry of a Recombinant Selenophosphate Synthetase with One Synonymic Substitution E197D to a Fluorescent Nucleotide Analog of ATP, TNP-ATP” (Journal of Amino Acids, 2013).
pEC50: −log10 of the molar value.

Target: T1, selenophosphate synthetase (SPS) (Escherichia coli, UniProt P16456, E197D)
T1 construct: gene selD; full-size selD from E. coli BL21-Gold (DE3), recombinant
Test: competitive displacement of TNP-ATP (fluorescence)
Assay type: binding

T1 sequence (P16456 whole entry E197D): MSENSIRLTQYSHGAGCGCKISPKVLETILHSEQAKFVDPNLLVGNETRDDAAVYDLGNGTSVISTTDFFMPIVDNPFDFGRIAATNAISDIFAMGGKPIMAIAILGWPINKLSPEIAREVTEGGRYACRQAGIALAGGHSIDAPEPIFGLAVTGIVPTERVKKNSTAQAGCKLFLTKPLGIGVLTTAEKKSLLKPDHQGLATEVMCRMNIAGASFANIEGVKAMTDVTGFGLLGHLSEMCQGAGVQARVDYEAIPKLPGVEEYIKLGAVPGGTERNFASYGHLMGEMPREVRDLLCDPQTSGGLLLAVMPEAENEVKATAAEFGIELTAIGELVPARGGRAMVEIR

Nc1ncnc2c1ncn2[C@@H]1O[C@H](COP(=O)(O)OP(=O)(O)OP(=O)(O)O)[C@@H](O)[C@H]1O [ATP]
pEC50: 3.35
